# US9113629B2, “4-amino-6-(4-substituted-phenyl)-picolinates and 6-amino-2-(4-substituted-phenyl)-pyrimidine-4-carboxylates and their use as herbicides” (DOW AGROSCIENCES LLC, priority 2013, dated 2015)
# Read-outs that look alike come from different tables or passages of the source.
# Columns and labels:
# [1] = system: Key Grass and Sedge Weeds as well as Grass Crops; test: Post-emergent Test II herbicidal activity (Table 6); format: in vivo; conditions: post-emergence, 336 h; for pest or weed control at 70 g/ha: application rate 70 g ai/ha; for pest or weed control at 140 g/ha: application rate 140 g ai/ha
# Summary of the method: (§1)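 Compounds, dissolved in 97:3 acetone/DMSO and diluted into an aqueous carrier containing crop oil concentrate and Triton X-155, are applied over the top of young plants at 187 L/ha. Injury is scored visually at 14 d, 0% meaning no effect and 100% complete kill.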
# [2] = system: Key Broadleaf Weed and Crop Species; test: Post-emergent Test II herbicidal activity (Table 5); format: in vivo; conditions: post-emergence, 336 h, post-emergent, 14 days after application; for pest or weed control at 70 g/ha: application rate 70 g ai/ha; for pest or weed control at 140 g/ha: application rate 140 g ai/ha
# Summary of the method: as §1
# [3] = CYPES: yellow nutsedge (Cyperus esculentus), read-out: Visual Growth Reduction (%) 14 Days After Application, CYPES
# [4] = DIGSA: crabgrass (Digitaria sanguinalis), read-out: Visual Growth Reduction (%) 14 Days After Application, DIGSA
# [5] = ECHCG: barnyardgrass (Echinochloa crus-galli), read-out: Visual Growth Reduction (%) 14 Days After Application, ECHCG
# [6] = ORYSA: rice (Oryza sativa), read-out: Visual Growth Reduction (%) 14 Days After Application, ORYSA
# [7] = SETFA: giant foxtail (Setaria faberi), read-out: Visual Growth Reduction (%) 14 Days After Application, SETFA
# [8] = SORVU: grain sorghum (Sorghum vulgare), read-out: Visual Growth Reduction (%) 14 Days After Application, SORVU
# [9] = TRZSS (wheat, Triticum aestivum), read-out: Visual Growth Reduction (%) 14 Days After Application, TRZSS
# [10] = ZEAMX: maize, corn (Zea mays), read-out: Visual Growth Reduction (%) 14 Days After Application, ZEAMX
# [11] = ABUTH: velvetleaf (Abutilon theophrasti), read-out: Visual Growth Reduction (%) 14 Days After Application, ABUTH
# [12] = AMARE: redroot pigweed (Amaranthus retroflexus), read-out: Visual Growth Reduction (%) 14 Days After Application, AMARE
# [13] = BRSNN: oilseed-rape, canola (Brassica napus), read-out: Visual Growth Reduction (%) 14 Days After Application, BRSNN
# [14] = CHEAL: lambsquarters (Chenopodium album), read-out: Visual Growth Reduction (%) 14 Days After Application, CHEAL
# [15] = EPHHL: wild poinsettia (Euphorbia heterophylla), read-out: Visual Growth Reduction (%) 14 Days After Application, EPHHL
# [16] = HELAN: sunflower (Helianthus annuus), read-out: Visual Growth Reduction (%) 14 Days After Application, HELAN
# [17] = VIOTR: wild pansy (Viola tricolor), read-out: Visual Growth Reduction (%) 14 Days After Application, VIOTR
SMILES,melting point [°C],"pest or weed control at 70 g/ha [1, 3] [%]","pest or weed control at 140 g/ha [1, 3] [%]","pest or weed control at 70 g/ha [1, 4] [%]","pest or weed control at 140 g/ha [1, 4] [%]","pest or weed control at 70 g/ha [1, 5] [%]","pest or weed control at 140 g/ha [1, 5] [%]","pest or weed control at 70 g/ha [1, 6] [%]","pest or weed control at 140 g/ha [1, 6] [%]","pest or weed control at 70 g/ha [1, 7] [%]","pest or weed control at 140 g/ha [1, 7] [%]","pest or weed control at 70 g/ha [1, 8] [%]","pest or weed control at 140 g/ha [1, 8] [%]","pest or weed control at 70 g/ha [1, 9] [%]","pest or weed control at 140 g/ha [1, 9] [%]","pest or weed control at 70 g/ha [1, 10] [%]","pest or weed control at 140 g/ha [1, 10] [%]","pest or weed control at 70 g/ha [2, 11] [%]","pest or weed control at 140 g/ha [2, 11] [%]","pest or weed control at 70 g/ha [2, 12] [%]",further results
Nc1cc(-c2cc(F)c(OC(F)F)cc2F)nc(C(=O)O)c1Cl [Compound 187],167.4 to 170.2,0 to 29,30 to 44,0 to 29,0 to 29,60 to 74,60 to 74,0 to 29,0 to 29,60 to 74,75 to 84,0 to 29,0 to 29,0 to 29,45 to 59,0 to 29,0 to 29,45 to 59,60 to 74,95 to 100,"pest or weed control at 140 g/ha [2, 12]: 95 to 100%; pest or weed control at 70 g/ha [2, 13]: 75 to 84%; pest or weed control at 140 g/ha [2, 13]: 75 to 84%; pest or weed control at 70 g/ha [2, 14]: 75 to 84%; pest or weed control at 140 g/ha [2, 14]: 95 to 100%; pest or weed control at 70 g/ha [2, 15]: 95 to 100%; pest or weed control at 140 g/ha [2, 15]: 95 to 100%; pest or weed control at 70 g/ha [2, 16]: 45 to 59%; pest or weed control at 140 g/ha [2, 16]: 60 to 74%; pest or weed control at 70 g/ha [2, 17]: 0 to 29%; pest or weed control at 140 g/ha [2, 17]: 0 to 29%"
Cc1cc(F)c(-c2cc(N)c(Cl)c(C(=O)O)n2)cc1F [Compound 188],172.9 to 175,0 to 29,0 to 29,0 to 29,0 to 29,75 to 84,60 to 74,0 to 29,0 to 29,0 to 29,30 to 44,45 to 59,0 to 29,0 to 29,0 to 29,0 to 29,0 to 29,75 to 84,95 to 100,95 to 100,"pest or weed control at 140 g/ha [2, 12]: 95 to 100%; pest or weed control at 70 g/ha [2, 13]: 60 to 74%; pest or weed control at 140 g/ha [2, 13]: 60 to 74%; pest or weed control at 70 g/ha [2, 14]: 95 to 100%; pest or weed control at 140 g/ha [2, 14]: 85 to 94%; pest or weed control at 70 g/ha [2, 15]: 95 to 100%; pest or weed control at 140 g/ha [2, 15]: 95 to 100%; pest or weed control at 70 g/ha [2, 16]: 75 to 84%; pest or weed control at 140 g/ha [2, 16]: 75 to 84%; pest or weed control at 70 g/ha [2, 17]: 0 to 29%; pest or weed control at 140 g/ha [2, 17]: 0 to 29%"
